Test results from ChEMBL document CHEMBL2202954, “The effect of PLC-γ2 inhibitors on the growth of human tumour cells” (2012).

Experiments:
Format in all cases: functional
[1] = test system: RPMI-8226; test: Cytotoxicity against human RPMI8226 cells assessed as cellular growth at 10 uM by SRB assay
[2] = test system: SK-MEL-5; test: Cytotoxicity against human SK-MEL-5 cells assessed as cellular growth at 10 uM by SRB assay
[3] = test system: NCI-H23; test: Cytotoxicity against human NCI-H23 cells assessed as cellular growth at 10 uM by SRB assay
[4] = test system: CAKI-1; test: Cytotoxicity against human Caki1 cells assessed as cellular growth at 10 uM by SRB assay
[5] = test system: 786-0; test: Cytotoxicity against human 786-0 cells assessed as cellular growth at 10 uM by SRB assay
[6] = test system: A549; test: Cytotoxicity against human A549 cells assessed as cellular growth at 10 uM by SRB assay
[7] = test system: UACC-62; test: Cytotoxicity against human UACC62 cells assessed as cellular growth at 10 uM by SRB assay
[8] = test system: K562; test: Cytotoxicity against human K562 cells assessed as cellular growth at 10 uM by SRB assay
[9] = test system: Malme-3M; test: Cytotoxicity against human MALME-3M cells assessed as cellular growth at 10 uM by SRB assay
[10] = test system: DU-145; test: Cytotoxicity against human DU145 cells assessed as cellular growth at 10 uM by SRB assay
[11] = test system: ACHN; test: Cytotoxicity against human ACHN cells assessed as cellular growth at 10 uM by SRB assay
[12] = test system: SN12C; test: Cytotoxicity against human SN12C cells assessed as cellular growth at 10 uM by SRB assay
[13] = test system: TK-10; test: Cytotoxicity against human TK10 cells assessed as cellular growth at 10 uM by SRB assay
[14] = test system: T47D; test: Cytotoxicity against human T47D cells assessed as cellular growth at 10 uM by SRB assay
[15] = test system: Hs-578T; test: Cytotoxicity against human Hs578T cells assessed as cellular growth at 10 uM by SRB assay
[16] = test system: HCT-116; test: Cytotoxicity against human HCT116 cells assessed as cellular growth at 10 uM by SRB assay
[17] = test system: KM12; test: Cytotoxicity against human KM12 cells assessed as cellular growth at 10 uM by SRB assay
[18] = test system: SF-295; test: Cytotoxicity against human SF295 cells assessed as cellular growth at 10 uM by SRB assay
[19] = test system: MDA-MB-435; test: Cytotoxicity against human MDA-MB-435 cells assessed as cellular growth at 10 uM by SRB assay
[20] = test system: NCI-H522; test: Cytotoxicity against human NCI-H522 cells assessed as cellular growth at 10 uM by SRB assay

| SMILES | Activity [1] | Activity [2] | Activity [3] | Activity [4] | Activity [5] | Activity [6] | Activity [7] | Activity [8] | Activity [9] | Activity [10] | Activity [11] | Activity [12] | Activity [13] | Activity [14] | Activity [15] | Activity [16] | Activity [17] | Activity [18] | Activity [19] | Activity [20] |
| --- | --- | --- | --- | --- | --- | --- | --- | --- | --- | --- | --- | --- | --- | --- | --- | --- | --- | --- | --- | --- |
| CC1(C)CC(=O)c2cc3c(N)c(C(=O)Nc4ccccc4Cl)sc3nc2C1 | 108.32% | 100.73% | 108.01% | 132.4% | 102.03% | 102.64% | 100.17% | 96.43% | 121.48% | 109.85% | 114.15% | 104.5% | 106.14% | 99.6% | 112.91% | 113.5% | 117.4% | 96.7% | 105.18% | 102.8% |
| Cc1ccc(S(=O)(=O)NC2=NC(=O)/C(=C\c3ccccc3)S2)cc1 | 104.04% | 100.29% | 107.93% | 102.92% | 107.82% | 103.33% | 96.39% | 94.57% | 112.01% | 111.67% | 103.63% | 99.26% | 104.1% | 100.5% | 128.48% | 111.6% | 115% | 114.32% | 110.94% | 85.18% |
| COc1ccc(NC(=O)c2sc3nc4c(cc3c2N)C(=O)CCC4)cc1 | 104.85% | 98.62% | 96.26% | 97.06% | 100.45% | 97.44% | 110.45% | 116.6% | 102.12% | 102.19% | 105.22% | 116.88% | 103.14% | 110.7% | 135.57% | 97.11% | 105.15% | 80.98% | 97.12% | 100.22% |
| O=c1/c(=C/c2ccc(Cl)cc2Cl)sc2nc(-c3ccccc3)nn12 | 112.43% | 106.75% | 101.62% | 116.76% | 103.31% | 107.72% | 89.1% | 98.67% | 136.07% | 102.1% | 107.07% | 94.22% | 106% | 90.03% | 98.17% | 106.75% | 101.32% | 118.28% | 106.5% | 98.76% |
| O=C(Nc1nc2ccc(Cl)cc2s1)c1ccc(Cl)cc1 | 95.05% | 94.67% | 91.71% | 81.52% | 101.53% | 94.26% | 101.97% | 96.27% | 110.45% | 114.57% | 96.94% | 122.51% | 131.87% | 93.28% | 98.57% | 98.42% | 102.62% | 87.02% | 90.92% | 99.64% |
| O=C(Nc1ccc2oc(=O)ccc2c1)c1ccc(-c2ccc(Cl)c(Cl)c2)o1 | 70.14% | 87.91% | 97.86% | 87.9% | 88.1% | 50.07% | 75.33% | 65.27% | 100.19% | 92.43% | 78.44% | 86.83% | 90.37% | 81.58% | 145.42% | 57.64% | 73.78% | 102.01% | 88.86% | 70.34% |
| Cc1ccc(C(=O)/C=C2/Nc3ccc(C)cc3OC2=O)cc1 | 56.86% | 100.21% | 99.9% | 96.63% | 111.25% | 105.68% | 96.95% | 95.07% | 114.26% | 118.59% | 104.27% | 96.84% | 135.06% | 104.44% | 122.96% | 110.04% | 106.74% | 132.37% | 106.99% | 100.47% |
| O=C(Nc1nc2ccccc2s1)c1ccc(F)cc1 | 88.45% | 91.3% | 89.91% | 62.93% | 107.84% | 98.36% | 89.52% | 89.96% | 96.2% | 108.3% | 98.03% | 108.22% | 125.36% | 55.31% | 140.08% | 92.81% | 52.84% | 103.39% | 100.56% | 92.24% |
| CC1(C)CC(=O)c2cc3c(N)c(C(=O)Nc4ccc(Cl)cc4)sc3nc2C1 | 102.77% | 96.03% | 104.98% | 134.14% | 98.68% | 97.61% | 105.25% | 107.2% | 119.36% | 103.07% | 116.88% | 109.62% | 95.21% | 96.17% | 108.83% | 108.43% | 116.67% | 100.12% | 108.85% | 95.83% |
| O=C1N=C(c2ccccc2)S/C1=C\c1ccc2c(c1)OCO2 | 92.67% | 96.34% | 114.7% | 101.66% | 100.46% | 95.78% | 91.01% | 73.5% | 94.49% | 102.97% | 99.6% | 94.15% | 110.48% | 94.58% | 94.3% | 104.4% | 92.95% | 97.51% | 103.92% | 105.96% |
| Cc1ccc(NC(=O)c2sc3nc4c(cc3c2N)C(=O)CCC4)c(Br)c1 | 109.86% | 92.03% | 102.24% | 94.2% | 107.4% | 92.09% | 95.44% | 104.86% | 95.81% | 108.79% | 107.36% | 94.31% | 131.53% | 89.73% | 100.84% | 106.38% | 97.82% | 91.32% | 94.29% | 103.96% |
